Assay results taken from patent US9302999B2, “Substituted triazoles as herbicides” (E. I. DU PONT DE NEMOURS AND COMPANY, priority 2012, dated 2016).
Like-named read-outs stand apart in the source and are kept apart here.

Columns and labels:
Type in all cases: in vivo
[1] = test system: bromegrass, downy (downy bromegrass, Bromus tectorum); assay: Test C pre-/postemergence: bromegrass, downy
From the text: (§1) Seeds of plant species selected from blackgrass (Alopecurus myosuroides), bromegrass, downy (downy bromegrass, Bromus tectorum), foxtail, green (green foxtail, Setaria viridis), ryegrass, Italian (Italian ryegrass, Lolium multiflorum), winter wheat (Triticum aestivum), wild oat (Avena fatua), galium (catchweed bedstraw, Galium aparine), bermudagrass (Cynodon dactylon), surinam grass (Brachiaria decumbens), cocklebur (common cocklebur, Xanthium strumarium), corn (Zea mays), large crabgrass (Digitaria sanguinalis), woolly cupgrass (Eriochloa villosa), foxtail, giant (giant foxtail, Setaria faberii), goosegrass (Eleusine indica), johnsongrass (Sorghum halepense), kochia (Kochia scoparia), lambsquarters (Chenopodium album), morningglory (Ipomoea coccinea), nightshade (eastern black nightshade, Solanum ptycanthum), nutsedge, yellow (yellow nutsedge, Cyperus esculentus), pigweed (Amaranthus retroflexus), ragweed (common ragweed, Ambrosia elation), soybean (Glycine max), common (oilseed) sunflower (Helianthus annuus), Russian thistle (Salsola kali) and velvetleaf (Abutilon theophrasti) were planted into a blend of loam soil and sand and treated preemergence with test chemicals formulated in a non-phytotoxic solvent mixture which included a surfactant.
(§2) At the same time, plants selected from these crop and weed species and also barley (winter barley, Hordeum vulgare), canarygrass (Phalaris minor), chickweed (common chickweed, Stellaria media) windgrass (Apera spica-venti) and deadnettle (henbit deadnettle, Lamium amplexicaule) were planted in pots containing Redi-Earth® planting medium (Scotts Company, 14111 Scottslawn Road, Marysville, Ohio 43041) comprising spaghnum peat moss, vermiculite, wetting agent and starter nutrients and treated with postemergence applications of test chemicals formulated in the same manner. Plants ranged in height from 2 to 18 cm (1- to 4-leaf stage) for postemergence treatments.
(§3) Treated plants and controls were maintained in a greenhouse for 13 to 15 days, after which time all species were compared to controls and visually evaluated. Plant response ratings, summarized in Table C, are based on a scale of 0 to 100 where 0 is no effect and 100 is complete control. A dash (-) response means no test result.

[2] = test system: surinam grass (Brachiaria decumbens); assay: Test C pre-/postemergence: surinam grass
In short: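 Preemergence on seeds in loam/sand, postemergence on 2–18 cm (1–4-leaf) plants in peat-based medium; compounds in non-phytotoxic solvent with surfactant. After 13–15 days in greenhouse, visual rating versus controls, 0 (no effect) to 100 (complete control).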

[3] = test system: Russian thistle (Salsola kali); assay: Test C pre-/postemergence: Russian thistle; details: Preemergence
From the text: as §1, §2, §3

[4] = test system: barley (winter barley, Hordeum vulgare); assay: Test C postemergence: barley
From the text: as §2, §3

[5] = test system: deadnettle (henbit deadnettle, Lamium amplexicaule); assay: Test C postemergence: deadnettle
In short: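 Pot-grown plants in peat/vermiculite medium sprayed postemergence at 2–18 cm height (1- to 4-leaf stage). Kept in greenhouse 13 to 15 days, then visually rated against untreated controls on a 0–100 scale (0 = no effect, 100 = complete control).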

[6] = test system: barnyardgrass (Echinochloa crus-galli); assay: Test C flooded paddy test: barnyardgrass; details: Echinochloa crus-galli, scale 0 to 100 (0 no effect, 100 complete control), read-out: Plant response rating, Barnyardgrass; for pest or weed control at 62 g/ha: 62 g ai/ha; for pest or weed control at 125 g/ha: 125 g ai/ha; for pest or weed control at 250 g/ha: 250 g ai/ha; for pest or weed control at 31 g/ha: 31 g ai/ha
In short: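 Visual ratings from 0 (no effect) to 100 (complete control), made against untreated controls 13 to 15 days after treatment, express plant response. Compounds went directly into paddy water over 2-leaf stage plants in pots flooded to 3 cm.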

[7] = test system: ryegrass, Italian (Italian ryegrass, Lolium multiflorum); assay: Test D pre-/postemergence: ryegrass, Italian
In short: (§4)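 Visual 0–100 rating versus untreated controls (0 no effect, 100 complete control), taken 14 to 21 days after treatment in a controlled growth environment. Preemergence: silt loam soil. Postemergence: peat moss/vermiculite medium, plants 2 to 18 cm, 1- to 4-leaf stage. Solvent mixture with surfactant.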

[8] = test system: chamomile (scentless chamomile, Matricaria inodora); assay: Test D pre-/postemergence: chamomile
In short: as §4

[9] = test system: nightshade (eastern black nightshade, Solanum ptycanthum); assay: Test C pre-/postemergence: nightshade; details: Preemergence
From the text: as §1, §2, §3

[10] = Postemergence, 31 g ai/ha, scale 0 to 100 (0 no effect, 100 complete control)
[11] = Postemergence, 62 g ai/ha, scale 0 to 100 (0 no effect, 100 complete control)
[12] = Postemergence, 125 g ai/ha, scale 0 to 100, 0 no effect, 100 complete control
[13] = Postemergence, 250 g ai/ha, scale 0 to 100
[14] = Preemergence, 31 g ai/ha, scale of 0 to 100, 0 is no effect, 100 is complete control
[15] = Preemergence, 62 g ai/ha, scale 0 to 100, 0 no effect, 100 complete control
[16] = Preemergence, 125 g ai/ha, scale 0 to 100, 0 no effect, 100 complete control
[17] = Preemergence, 250 g ai/ha, scale 0 to 100, 0 no effect, 100 complete control
[18] = 31 g ai/ha, scale of 0 to 100, 0 is no effect, 100 is complete control
[19] = 62 g ai/ha, scale of 0 to 100, 0 is no effect, 100 is complete control
[20] = 125 g ai/ha, scale 0 to 100, 0 no effect, 100 complete control
[21] = 250 g ai/ha, scale 0 to 100, 0 no effect, 100 complete control
[22] = 62 g ai/ha, scale 0 to 100 (0 no effect, 100 complete control)
[23] = 31 g ai/ha, scale 0 to 100 (0 no effect, 100 complete control)
[24] = Flood (flooded paddy test), visual rating after 13 to 15 days
[25] = Postemergence, 250 g ai/ha, scale 0 to 100 (0 no effect, 100 complete control)
[26] = Postemergence, 16 g ai/ha, scale 0 to 100
[27] = Preemergence, 16 g ai/ha, scale 0 to 100 (0 no effect, 100 complete control)
[28] = Preemergence, 31 g ai/ha, scale 0 to 100 (0 no effect, 100 complete control)
[29] = Preemergence, 62 g ai/ha, scale 0 to 100
[30] = Preemergence, 125 g ai/ha, scale 0 to 100
[31] = Preemergence, 250 g ai/ha, scale 0 to 100

Cc1nn(-c2ccc(F)cc2)nc1Cc1ccnc(C(F)(F)F)c1 [Compound 16, 4-[[2-(4-fluorophenyl)-5-methyl-2H-1,2,3-triazol-4-yl]methyl]-2-(trifluoromethyl)pyridine]
Plant response rating, Bromegrass, Downy [1, 10]: 15 | Plant response rating, Bromegrass, Downy [1, 11]: 15 | Plant response rating, Bromegrass, Downy [1, 12]: 25 | Plant response rating, Bromegrass, Downy [1, 13]: 25 | Plant response rating, Bromegrass, Downy [1, 14]: 5 | Plant response rating, Bromegrass, Downy [1, 15]: 10 | Plant response rating, Bromegrass, Downy [1, 16]: 50 | Plant response rating, Bromegrass, Downy [1, 17]: 100 | Plant response rating, Surinam Grass [2, 10]: 5 | Plant response rating, Surinam Grass [2, 11]: 5 | Plant response rating, Surinam Grass [2, 12]: 10 | Plant response rating, Surinam Grass [2, 13]: 45 | Plant response rating, Russian Thistle [3, 18]: 45 | Plant response rating, Russian Thistle [3, 19]: 100 | Plant response rating, Russian Thistle [3, 20]: 100 | Plant response rating, Russian Thistle [3, 21]: 100 | Plant response rating, Barley [4, 22]: 35 | Plant response rating, Barley [4, 20]: 45 | Plant response rating, Barley ([4]; 250 g ai/ha, scale 0 to 100): 45 | Plant response rating, Deadnettle [5, 23]: 50 | Plant response rating, Deadnettle [5, 22]: 98 | Plant response rating, Deadnettle [5, 20]: 98 | Plant response rating, Deadnettle ([5]; 250 g ai/ha, scale 0 to 100): 100 | pest or weed control at 62 g/ha [6, 24]: 65% | pest or weed control at 125 g/ha [6, 24]: 70% | pest or weed control at 250 g/ha [6, 24]: 80% | pest or weed control at 31 g/ha ([6]; Flood): 25% | Plant response rating: Ryegrass, Italian [7, 10]: 20 | Plant response rating: Ryegrass, Italian [7, 11]: 25 | Plant response rating: Ryegrass, Italian [7, 12]: 30 | Plant response rating: Ryegrass, Italian [7, 25]: 35 | Plant response rating, Ryegrass, Italian [7, 26]: 10 | Plant response rating, Ryegrass, Italian [7, 27]: 0 | Plant response rating, Ryegrass, Italian [7, 28]: 0 | Plant response rating, Ryegrass, Italian [7, 29]: 10 | Plant response rating, Ryegrass, Italian [7, 30]: 60 | Plant response rating, Ryegrass, Italian [7, 31]: 60 | Plant response rating: Chamomile [8, 10]: 0 | Plant response rating: Chamomile [8, 11]: 0 | Plant response rating: Chamomile [8, 12]: 5 | Plant response rating: Chamomile [8, 25]: 10 | Plant response rating, Chamomile [8, 26]: 0 | Plant response rating, Chamomile [8, 27]: 0 | Plant response rating, Chamomile [8, 28]: 0 | Plant response rating, Chamomile [8, 29]: 25 | Plant response rating, Chamomile [8, 30]: 70 | Plant response rating, Chamomile [8, 31]: 100

Cc1nn(-c2ccc(F)cc2)nc1Oc1ccnc(C(F)(F)F)c1 [Compound 129, 4-[[2-(4-fluorophenyl)-5-methyl-2H-1,2,3-triazol-4-yl]oxy]-2-(trifluoromethyl)pyridine]
Plant response rating, Bromegrass, Downy [1, 10]: 35 | Plant response rating, Bromegrass, Downy [1, 11]: 35 | Plant response rating, Bromegrass, Downy [1, 12]: 40 | Plant response rating, Bromegrass, Downy [1, 13]: 40 | Plant response rating, Bromegrass, Downy [1, 14]: 30 | Plant response rating, Bromegrass, Downy [1, 15]: 80 | Plant response rating, Bromegrass, Downy [1, 16]: 95 | Plant response rating, Bromegrass, Downy [1, 17]: 100 | Plant response rating, Surinam Grass [2, 10]: 45 | Plant response rating, Surinam Grass [2, 11]: 45 | Plant response rating, Surinam Grass [2, 12]: 50 | Plant response rating, Surinam Grass [2, 13]: 60 | Plant response rating, Surinam Grass [2, 14]: 95 | Plant response rating, Surinam Grass ([2]; Preemergence, 62 g ai/ha, scale of 0 to 100, 0 is no effect, 100 is complete control): 95 | Plant response rating, Surinam Grass [2, 16]: 98 | Plant response rating, Surinam Grass [2, 17]: 98 | Plant response rating, Nightshade [9, 18]: 85 | Plant response rating, Nightshade [9, 19]: 90 | Plant response rating, Nightshade [9, 20]: 90 | Plant response rating, Nightshade [9, 21]: 95 | Plant response rating, Barley [4, 23]: 30 | Plant response rating, Barley [4, 22]: 35 | Plant response rating, Barley [4, 20]: 45 | Plant response rating, Barley ([4]; 250 g ai/ha, scale 0 to 100): 50 | Plant response rating, Deadnettle [5, 23]: 100 | Plant response rating, Deadnettle [5, 22]: 100 | Plant response rating, Deadnettle [5, 20]: 100 | Plant response rating, Deadnettle ([5]; 250 g ai/ha, scale 0 to 100): 100 | pest or weed control at 125 g/ha [6, 24]: 80% | pest or weed control at 250 g/ha [6, 24]: 85% | pest or weed control at 31 g/ha ([6]; Flood): 55% | pest or weed control at 62 g/ha ([6]; Flood): 75% | Plant response rating: Ryegrass, Italian [7, 10]: 5 | Plant response rating: Ryegrass, Italian [7, 11]: 5 | Plant response rating: Ryegrass, Italian [7, 12]: 10 | Plant response rating: Ryegrass, Italian [7, 25]: 15 | Plant response rating, Ryegrass, Italian [7, 26]: 5 | Plant response rating, Ryegrass, Italian [7, 27]: 0 | Plant response rating, Ryegrass, Italian [7, 28]: 5 | Plant response rating, Ryegrass, Italian [7, 29]: 10 | Plant response rating, Ryegrass, Italian [7, 30]: 70 | Plant response rating, Ryegrass, Italian [7, 31]: 90 | Plant response rating: Chamomile [8, 10]: 30 | Plant response rating: Chamomile [8, 11]: 30 | Plant response rating: Chamomile [8, 12]: 30 | Plant response rating: Chamomile [8, 25]: 35 | Plant response rating, Chamomile [8, 26]: 20 | Plant response rating, Chamomile [8, 27]: 0 | Plant response rating, Chamomile [8, 28]: 30 | Plant response rating, Chamomile [8, 29]: 30 | Plant response rating, Chamomile [8, 30]: 30 | Plant response rating, Chamomile [8, 31]: 100
